According to ChEMBL document CHEMBL1201862, “PubChem BioAssay data set” (2004):
Several values for one entry are separate records, joined by “and”; a condition that tells them apart may be missing. Identical values can stand only once. Activity calls are given as the source filed them.

Experiments:
[1] = target: Lysosomal acid glucosylceramidase (Homo sapiens, UniProt P04062); assay: Dose response cell-based high throughput screening assay to identify enhancers of beta-glucosidase activity. [Related pubchem assays: 784 ]; assay type: functional
[2] = target: T1, Estrogen receptor beta (Homo sapiens, UniProt Q92731);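 also: recombinant ER-beta bound to coactivator SRC1 peptide in presence of estradiol agonist; inhibitors block coactivator peptide binding and lower the FRET signal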
[3] = target: T1, Estrogen receptor beta; assay: ERβ–SRC-3 coactivator interaction inhibitors, confirmation, orthogonal assay, biochemical, ELISA, streptavidin-HRP readout (AID 1060)
[4] = Luminescence Cell-Based Dose Confirmation HTS to Identify Activators of 5'UTR Stem-Loop Driven Alpha-Synuclein mRNA Translation in H4 Neuroglioblastoma Cells. [Related pubchem assays: 1829 (Project Summary), 1814 (Primary HTS)]; assay type: functional
[5] = Luminescence Cell-Based Dose Response HTS to Identify Activators of Luciferase Translation or Activity in H4 […] Cells. [Related pubchem assays: 1829 (Project Summary), 1814 (Primary HTS)]; assay type: functional
[6] = system: H4; assay: Luminescence Cell-Based Dose Response HTS to Identify Activators of 5'UTR Stem-Loop Driven Prion Protein mRNA Translation in H4 Neuroglioblastoma Cells. [Related pubchem assays: 1829 (Project Summary), 1814 (Primary HTS)]; assay type: functional; conditions: Homo sapiens
[7] = cytotoxicity in HPDE-C7 cells, cell-based, fluorescence, HTS (AID 430); assay type: functional; conditions: Homo sapiens
[8] = inhibitors of intracellular T. cruzi replication, confirmation, NIH3T3 host cells, beta-gal luminescence (AID 2044); assay type: functional, cell-based;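 also: intracellular parasites grown in NIH/3T3 mouse fibroblasts as host cells; luminescent beta-galactosidase reporter signal from transgenic T. cruzi replicating inside host cells; inhibitors lower the luminescence signal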
[9] = cytotoxicity in KRAS-transformed pancreatic duct cells, primary screen, cell-based, fluorescence, HTS (AID 431); assay type: functional; conditions: Homo sapiens;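 also: cell line used: HPDE-C7K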
[10] = cytotoxicity toward NIH3T3 fibroblasts, dose response, counter-screen, cell-based, ATP luminescence, mouse fibroblasts (AID 2010); assay type: functional;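 also: cells exposed to compound for about 90 hours before reading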
[11] = target: Fructose-bisphosphate aldolase (Mycobacterium tuberculosis, UniProt P9WQA3); assay: Fluorescence-based biochemical high throughput dose response assay for inhibitors of the fructose-bisphosphate aldolase (FBA) of M. tuberculosis.; assay type: functional
[12] = Luminescence Cell-Based Dose Response to Identify Activators of 5'UTR Stem-Loop Driven Prion Protein mRNA Translation in H4-C Neuroglioblastoma Cells. [Related pubchem assays: 1829 (Project Summary), 1814 (Primary HTS)]; assay type: functional
[13] = Luminescence Cell-Based Dose Response to Identify Activators of Luciferase Translation or Activity in H4-C Neuroglioblastoma Cells. [Related pubchem assays: 1829 (Project Summary), 1814 (Primary HTS)]; assay type: functional
[14] = target: Prothrombin (Homo sapiens, UniProt P00734); assay: Thrombin 1536 HTS Dose Response Confirmation. [Related pubchem assays: 1046 (Thrombin 1536 HTS; hits were confirmed in this assay)]; assay type: functional
[15] = Luminescence Cell-Based Dose Confirmation to Identify Activators of 5'UTR Stem-Loop Driven Alpha-Synuclein mRNA Translation in H4 Neuroglioblastoma Cells. [Related pubchem assays: 1829 (Project Summary), 1814 (Primary HTS)]; assay type: functional
[16] = target: Photoreceptor-specific nuclear receptor (Homo sapiens, UniProt Q9Y5X4); assay type: functional;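 also: potency for compounds that break the NR2E3 corepressor complex and count as activators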
[17] = target: Peroxisome proliferator-activated receptor gamma/Nuclear receptor coactivator 1 (Homo sapiens, UniProt P37231); assay: (§1) TR-FRET dose response biochemical High Throughput Screening assay for agonists of the steroid receptor coactivator 1 (SRC-1) recruitment by the peroxisome proliferator-activated receptor gamma (PPAR gamma): non-selective agonists. [Related pubchem assays (depositor defined):AID1300, AID1808, AID504735, AID631]; assay type: protein assay
[18] = target: Peroxisome proliferator-activated receptor gamma/Nuclear receptor coactivator 3 (Homo sapiens, UniProt P37231); assay: as §1, with “3 (SRC-3)” for “1 (SRC-1)”, “assays: 1301 (Confirmation screen.), 1048 (Primary screen.)]” for “assays (depositor defined):AID1300, AID1808, AID504735, AID631]”; assay type: functional
[19] = target: Peroxisome proliferator-activated receptor gamma/Nuclear receptor coactivator 2 (Homo sapiens, UniProt P37231); assay: TR-FRET dose response biochemical High Throughput Screening assay for agonists of the steroid receptor coactivator 2 (SRC-2) recruitment by the peroxisome proliferator-activated receptor gamma (PPAR gamma): non-selective agonists. [Related pubchem assays: 1297, 1032 ]; assay type: functional
[20] = target: Peroxisome proliferator-activated receptor gamma/Nuclear receptor corepressor 2 (Homo sapiens, UniProt P37231+Q9Y618); assay type: functional
[21] = target: Protein Tat (Human immunodeficiency virus type 1 group M subtype B (isolate HXB2)(HIV-1), UniProt P04608); assay type: functional;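 also: tat binding to TAR RNA read out by fluorescence polarization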
[22] = system: BJ; assay: cytotoxicity toward BJ-TERT fibroblasts, dose response, cell-based, RAS-independent, luminescence (AID 1933); assay type: functional, Homo sapiens; conditions: bj
[23] = system: BJ; assay: cells; assay type: functional, cell-based, Homo sapiens; conditions: bj
[24] = system: BJ; assay: cytotoxicity toward BJ-TERT-LT-ST fibroblasts, dose response, cell-based, RAS-independent, luminescence (AID 1935); assay type: functional, Homo sapiens; conditions: bj;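 also: BJ fibroblasts immortalized with TERT plus LT and ST oncogenes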
[25] = target: X-box-binding protein 1 (Homo sapiens, UniProt P17861); assay type: functional, Cricetulus griseus;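 also: confirmatory dose-response counter-screen serving a CHOP assay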
Sequence of X-box-binding protein 1 (P17861 whole entry): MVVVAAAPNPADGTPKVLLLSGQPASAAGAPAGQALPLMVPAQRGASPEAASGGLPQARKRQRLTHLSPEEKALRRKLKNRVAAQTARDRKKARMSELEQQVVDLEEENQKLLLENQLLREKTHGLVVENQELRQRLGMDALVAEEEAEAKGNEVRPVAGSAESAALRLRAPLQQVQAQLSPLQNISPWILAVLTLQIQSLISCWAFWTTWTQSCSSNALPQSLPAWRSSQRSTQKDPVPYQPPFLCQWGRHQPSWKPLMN

T1 sequence (Q92731 whole entry): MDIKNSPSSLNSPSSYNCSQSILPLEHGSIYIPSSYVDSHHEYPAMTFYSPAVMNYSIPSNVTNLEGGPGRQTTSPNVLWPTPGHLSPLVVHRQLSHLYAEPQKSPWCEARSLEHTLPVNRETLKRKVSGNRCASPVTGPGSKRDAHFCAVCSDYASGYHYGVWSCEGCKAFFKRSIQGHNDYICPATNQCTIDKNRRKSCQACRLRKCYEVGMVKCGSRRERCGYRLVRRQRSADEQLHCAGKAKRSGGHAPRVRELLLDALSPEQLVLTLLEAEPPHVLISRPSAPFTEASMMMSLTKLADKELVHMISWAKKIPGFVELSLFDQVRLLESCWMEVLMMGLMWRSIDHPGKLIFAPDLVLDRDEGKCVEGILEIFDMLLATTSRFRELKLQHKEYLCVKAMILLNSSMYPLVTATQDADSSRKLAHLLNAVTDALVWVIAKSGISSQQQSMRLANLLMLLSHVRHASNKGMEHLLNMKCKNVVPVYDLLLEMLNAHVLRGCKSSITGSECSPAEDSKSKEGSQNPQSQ
Sequence of Lysosomal acid glucosylceramidase (P04062 whole entry): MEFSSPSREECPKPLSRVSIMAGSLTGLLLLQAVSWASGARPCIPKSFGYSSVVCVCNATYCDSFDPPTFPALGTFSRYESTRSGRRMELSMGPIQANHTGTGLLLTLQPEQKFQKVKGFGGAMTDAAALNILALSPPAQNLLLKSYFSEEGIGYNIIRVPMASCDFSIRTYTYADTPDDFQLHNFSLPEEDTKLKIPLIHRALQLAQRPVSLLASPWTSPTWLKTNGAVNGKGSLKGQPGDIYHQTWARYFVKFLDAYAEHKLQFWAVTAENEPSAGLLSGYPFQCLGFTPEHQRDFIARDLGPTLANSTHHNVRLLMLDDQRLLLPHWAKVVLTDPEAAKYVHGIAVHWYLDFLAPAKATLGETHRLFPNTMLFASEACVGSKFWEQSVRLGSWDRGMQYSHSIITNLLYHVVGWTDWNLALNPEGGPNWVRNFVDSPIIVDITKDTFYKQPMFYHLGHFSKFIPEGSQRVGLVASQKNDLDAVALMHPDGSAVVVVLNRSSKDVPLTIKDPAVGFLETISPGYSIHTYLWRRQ
Sequence of Fructose-bisphosphate aldolase (P9WQA3 whole entry): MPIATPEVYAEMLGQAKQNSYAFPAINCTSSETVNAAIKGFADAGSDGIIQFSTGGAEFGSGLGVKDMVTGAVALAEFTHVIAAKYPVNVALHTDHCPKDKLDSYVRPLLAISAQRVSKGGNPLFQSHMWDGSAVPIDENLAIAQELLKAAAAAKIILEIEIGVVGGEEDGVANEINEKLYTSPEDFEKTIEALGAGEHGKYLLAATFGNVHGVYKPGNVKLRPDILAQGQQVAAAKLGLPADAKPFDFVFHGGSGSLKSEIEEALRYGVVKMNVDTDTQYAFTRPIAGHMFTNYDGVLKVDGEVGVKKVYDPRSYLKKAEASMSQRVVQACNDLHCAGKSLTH
Sequence of Protein Tat (P04608 whole entry): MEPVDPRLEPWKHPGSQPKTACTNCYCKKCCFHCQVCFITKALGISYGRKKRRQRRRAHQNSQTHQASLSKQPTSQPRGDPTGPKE
Sequence of Photoreceptor-specific nuclear receptor (Q9Y5X4 whole entry): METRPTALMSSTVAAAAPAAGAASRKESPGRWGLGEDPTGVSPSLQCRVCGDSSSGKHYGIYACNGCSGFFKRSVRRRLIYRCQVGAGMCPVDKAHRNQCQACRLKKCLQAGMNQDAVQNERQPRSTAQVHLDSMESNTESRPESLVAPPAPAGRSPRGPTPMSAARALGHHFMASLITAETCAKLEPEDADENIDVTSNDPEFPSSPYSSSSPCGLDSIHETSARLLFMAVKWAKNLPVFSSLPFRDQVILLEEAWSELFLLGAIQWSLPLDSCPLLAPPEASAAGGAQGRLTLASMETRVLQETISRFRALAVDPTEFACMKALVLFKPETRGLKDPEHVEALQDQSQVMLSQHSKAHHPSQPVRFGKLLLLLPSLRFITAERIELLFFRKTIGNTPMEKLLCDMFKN
Sequence of Peroxisome proliferator-activated receptor gamma/Nuclear receptor coactivator 1 (P37231 whole entry): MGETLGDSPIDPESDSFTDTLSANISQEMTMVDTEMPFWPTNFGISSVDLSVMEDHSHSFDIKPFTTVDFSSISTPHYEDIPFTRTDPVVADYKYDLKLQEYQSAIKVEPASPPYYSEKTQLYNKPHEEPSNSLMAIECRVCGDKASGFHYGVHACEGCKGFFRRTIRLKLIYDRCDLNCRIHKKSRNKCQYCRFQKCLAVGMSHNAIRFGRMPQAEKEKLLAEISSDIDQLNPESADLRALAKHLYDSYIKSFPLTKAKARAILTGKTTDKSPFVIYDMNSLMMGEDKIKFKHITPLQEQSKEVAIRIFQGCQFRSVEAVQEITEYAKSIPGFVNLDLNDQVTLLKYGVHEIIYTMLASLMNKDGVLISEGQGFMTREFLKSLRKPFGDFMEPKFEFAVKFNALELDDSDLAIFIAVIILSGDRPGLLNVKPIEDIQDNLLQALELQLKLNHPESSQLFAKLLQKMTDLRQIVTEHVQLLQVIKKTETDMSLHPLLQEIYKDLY
Sequence of Peroxisome proliferator-activated receptor gamma/Nuclear receptor coactivator 1 (Q15788 whole entry, further chain): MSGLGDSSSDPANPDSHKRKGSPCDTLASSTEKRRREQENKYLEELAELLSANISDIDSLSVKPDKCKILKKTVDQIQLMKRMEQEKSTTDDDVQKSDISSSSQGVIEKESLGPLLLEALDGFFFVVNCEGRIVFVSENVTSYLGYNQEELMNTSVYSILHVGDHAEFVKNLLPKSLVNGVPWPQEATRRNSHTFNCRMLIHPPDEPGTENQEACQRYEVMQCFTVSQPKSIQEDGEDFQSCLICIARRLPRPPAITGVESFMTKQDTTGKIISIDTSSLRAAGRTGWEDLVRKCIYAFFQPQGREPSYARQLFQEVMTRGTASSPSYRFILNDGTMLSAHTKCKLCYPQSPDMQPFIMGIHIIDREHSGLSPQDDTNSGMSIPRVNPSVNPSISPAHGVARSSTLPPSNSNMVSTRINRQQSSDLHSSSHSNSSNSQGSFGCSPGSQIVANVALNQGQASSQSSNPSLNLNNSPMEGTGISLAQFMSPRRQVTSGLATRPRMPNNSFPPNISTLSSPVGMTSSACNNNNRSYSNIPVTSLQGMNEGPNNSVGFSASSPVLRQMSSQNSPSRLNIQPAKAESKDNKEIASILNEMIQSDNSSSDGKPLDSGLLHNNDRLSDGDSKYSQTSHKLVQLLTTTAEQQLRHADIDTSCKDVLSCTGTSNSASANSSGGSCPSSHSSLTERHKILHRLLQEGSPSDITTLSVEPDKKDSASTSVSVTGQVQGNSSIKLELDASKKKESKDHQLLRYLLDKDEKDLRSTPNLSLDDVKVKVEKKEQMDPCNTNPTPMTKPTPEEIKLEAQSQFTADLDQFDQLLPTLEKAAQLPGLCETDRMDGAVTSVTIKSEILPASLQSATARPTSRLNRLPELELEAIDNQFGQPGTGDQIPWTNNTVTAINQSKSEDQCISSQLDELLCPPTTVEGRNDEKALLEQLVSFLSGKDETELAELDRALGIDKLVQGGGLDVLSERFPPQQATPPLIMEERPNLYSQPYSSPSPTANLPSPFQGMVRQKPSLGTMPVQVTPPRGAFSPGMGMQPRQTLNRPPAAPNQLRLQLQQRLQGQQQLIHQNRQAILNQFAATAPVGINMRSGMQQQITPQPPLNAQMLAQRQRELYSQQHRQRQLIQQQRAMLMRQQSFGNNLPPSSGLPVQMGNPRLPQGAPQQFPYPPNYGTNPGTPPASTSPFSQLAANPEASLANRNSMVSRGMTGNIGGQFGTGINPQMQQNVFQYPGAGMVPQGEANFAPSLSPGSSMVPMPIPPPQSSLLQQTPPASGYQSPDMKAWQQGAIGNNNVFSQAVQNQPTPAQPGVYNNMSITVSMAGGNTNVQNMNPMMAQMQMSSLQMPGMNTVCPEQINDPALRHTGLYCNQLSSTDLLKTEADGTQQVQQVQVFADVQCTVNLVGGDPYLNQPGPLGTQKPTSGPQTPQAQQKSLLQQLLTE

## CC(C)OC(=O)CSc1nnc(-c2cccnc2)n1N
[1]
  EC50: > 10 µM (not active)

## Cc1ccccc1Nc1nnc(SCC(=O)NCc2ccco2)s1
[2]
  IC50: 10.3 µM (active)
[3]
  IC50: 3.24 µM (not active) and > 50 µM (not active)

## Nc1c(C(=O)NCc2ccco2)c2nc3ccccc3nc2n1CCN1CCCCC1
[4]
  EC50: > 120 µM (not active)
[5]
  EC50: 26.9 µM (active)
[6]
  EC50: > 120 µM (not active)
[7]
  EC50: 12.6 µM (active)
[8]
  EC50: 2.43 µM (active)
[9]
  EC50: 14.4 µM (active)
[10]
  EC50: 9.81 µM (active)
[11]
  IC50: 0.776 µM (active)

## Cc1ccc(-n2c(C)cc(C(=O)CSc3nncs3)c2C)cc1
[12]
  EC50: 0.332 µM (active)
[6]
  EC50: < 0.1 µM (active)
[13]
  EC50: 0.34 µM (active)
[14]
  IC50: > 50 µM (not active)
[15]
  EC50: 0.346 µM (active)

## O=C(O)CCc1ccc(-c2ccc(Br)cc2)o1
[16]
  IC50: > 39.8 µM (not active)
[17]
  EC50: > 79.4 µM (inactive)
[18]
  EC50: > 79.4 µM (not active)
[19]
  EC50: 65.4 µM (not active)
[20]
  IC50: 4.4 µM (active)
[21]
  IC50: > 100 µM (active)

## CCOC(=O)c1ccc(NC(=O)CSC2=NC(=O)C(CC)C(=O)N2)cc1 (configuration not stated)
[1]
  EC50: > 10 µM (not active)

## C=C(C=O)CC1CC(O)[C@]2(C)OC3CC4OC5C[C@]6(C)O[C@]7(C)CCC8OC9C[C@]%10(C)OC%11C(C)=CC(=O)OC%11CC%10OC9C[C@@H](C)C8OC7CC6O[C@]5(C)CC5OC5C4OC3CC2O1 (some centres not stated)
[22]
  EC50: 1.17 µM (inconclusive)
[23]
  EC50: 2.93 µM (inconclusive)
[24]
  EC50: 0.735 µM (inconclusive)
[25]
  Absolute IC50 (XBP1): 4.71 µM
